The source of these data is patent US7888385B2, “Airway alkalinization as therapy for airway diseases” (priority 2002, dated 2011).

Data set [1] is described as follows: Practical applications: asthma patient cases. It counts as in vivo, human. The source says: (§1) Practical Applications of the Present Invention
For data set [2] the following is noted: existing formulations; cited from earlier work.
Data set [3] relates to airway epithelial glutaminase. The data set is described as follows: Ammonium accumulation by small airway epithelial cells (SAEC) in 3 mM glutamine. The data set is classed as cell-based, human. As to the method: (SAEC: Clonetics) grown to confluence in six well plates with 3 mM glutamine were incubated with S-Nitrosoglutathione (GSNO; 200 μm) in the presence or absence of cysteinyl glycine (CG; 100 μM). Ammonium accumulation over time was compared with control cells. S-Nitrosoglutathione require conversion to S-Nitrosocysteinyl glycine (CGSNO) (whether through simple transnitrosation reactions in the presence of CG or through cleavage by γ glutamyl transpeptidase) to be fully active at intracellular sites, such as mitochondrial glutaminase, in some system. However, conversion of GSNO to CGSNO dramatically shortens the chemical and biological half-life of the SNO moiety. […] Accumulation of NH4^+ in medium alone was at the threshold of detection.

For another data set, the system named is mycobacteria. The following applies: human, in vivo, pH 3.
Source text: as §1

For data set [4] the following is noted: cited from earlier work.
The next data set has as its system glutaminase. The experiment in a line: Glutaminase activity in cultured lung epithelial cells. It counts as cell-based. The following applies: 100 u/ml, at 24 and 48 hours, p<0.01, n=3 each. An excerpt:
An indirect effect of HRV infection involving inflammatory and/or neuronal mediators is also possible. In particular, IFN γ is a likely candidate to mediate glutaminase inhibition because 1) Th1 cytokines inhibit glutaminase activity in lower airway epithelial cells 2) IFN γ inhibits glutaminase in other cell systems; and 3) IFN γ production following HRV infection in the setting of Th2-lymphocyte associated chronic inflammation may contribute to asthmatic airway narrowing. Applicants have shown that 100 u/ml interferon gamma inhibits glutaminase activity in cultured lung epithelial cells in excess of 65% at 24 and 48 hours (p<0.01, n=3 each). Though circulating T cells could produce IFN γ during rhinovirus infections, it seems more likely that it would be secreted in the airway itself as a result of local recruitment and activation of Th1 and/or CD8 cells.
In accordance with one embodiment, a method of treating asthma comprises nebulizing or treating systemically with a compound that facilitates breakdown of S-Nitrosothiols, such as CuCl, Cu/Zn SOD, glutathione peroxidase, glutathione-dependent formaldehyde dehydrogenase or gamma glutamyl transpeptidase. […]

Structures can show the parent of a compound that is named as a salt.

Turning to `CC(C)(C)NCC(O)c1ccc(O)c(CO)c1` (centres unmarked) [Albuterol], the asthma symptoms result in data set [1] (0.083 mg diluted in normal saline (pH 3.5), child) was “symptoms do not improve”; in data set [1] (same dose diluted in 10 mM phosphate buffered saline, pH 8), “symptoms resolve”. Moreover, the “pH of existing formulation” value in data set [2] is recorded as 3 to 5.
As for `N[C@@H](CS)C(=O)NCC(=O)O` [CG, cysteinyl glycine], in data set [3] (cysteinyl glycine 100 μM added to GSNO 200 μm, after 48 hours), the “effect on GSNO inhibition of NH4+ accumulation after 48 hours” value is listed as “eliminated the GSNO effect”.
As to `[Cl][Cu]` [CuCl], the asthma symptoms entry in data set [1] (10 μM in 10 mM phosphate buffered saline, pH 8, three times/day) is “asthma symptoms resolve”.
Turning to `N[C@@H](CCC(=O)N[C@@H](CSN=O)C(=O)NCC(=O)O)C(=O)O` [GSNO, S-Nitrosoglutathione], in data set [3] (GSNO 200 μm in the presence of cysteinyl glycine 100 μM, 24 hours), the “NH4+ accumulation at 24 hours” value was “no NH4^+ at all accumulated”. Also, in data set [3] (GSNO 200 μm, SAEC, p<0.01 by ANOVA), the “NH4+ accumulation over time vs control cells” value is recorded as “inhibited NH4^+ accumulation at each time point”.
Take `CC(C)(C)NC[C@H](O)c1ccc(O)c(CO)c1` [Levalbuterol HCl]: the asthma symptoms result in data set [1] (levalbuterol and budesonide together, 0.5 mg by nebulizer four times/day) was “without relief of their symptoms”. Further, the “pH of existing formulation” value in data set [2] is 3.3-4.5.
In the case of `CC(=O)O` [acetic acid], the tuberculosis symptoms entry with mycobacteria is on record as “symptoms resolve”.
As to `O=C(O)CN(CCO)CCO` [bicine, N,N-Bis(2-hydroxyethyl)glycine], the pKa (usually the negative logarithm of the acid dissociation constant) in data set [4] is 8.46.
`OC(Cn1cncn1)(Cn1cncn1)c1ccc(F)cc1F` [fluconazole]: in data set [1] (7 day course, 200 mg/day, chronic yeast infection in mouth), the asthma symptoms result was “asthma symptoms improve”.
`NC(=O)CC[C@H](N)C(=O)O` [glutamine]: the asthma symptoms entry in data set [1] (1 gm by mouth three times a day) is “does not develop any asthma symptoms”. In data set [1] (1 gm by nebulizer (pH 8) twice a day at onset of upper respiratory symptoms), the asthma exacerbation result is on record as “does not develop an asthma exacerbation”.
`NCC(=O)O` [glycine, aminoacetic acid]: in data set [1] (1 mM glycine in 10 mM CAPS (pH 7.6) by nebulizer immediately before levalbuterol and budesonide), the asthma symptoms entry is on record as “becomes asymptomatic”.
As to `O=C(O)CNC(CO)(CO)CO` [tricene, N-[tris(hydroxymethyl)methyl] glycine], the pKa in data set [4] was 8.26.
As for “interferon gamma: Th1-derived cytokine that inhibits glutaminase”, in the data set with glutaminase, the “inhibition of glutaminase activity” value is > 65%.
